Legend:
NRS144 strain = assay: MIC of the inducer CBAP; type: cell-based, Staphylococcus aureus
[1] = system: modified bla operons (pCN52RI, pCN52RI-venus, pCN52RI-mCherry); assay: Induction of fluorescent reporters of the bla operon by CBAP; type: cell-based, S. aureus NRS144
Description: FIG. 4. Comparison of the fluorescence intensity produced by S. aureus NRS144 strains harboring pCN52RI, pCN52RI-venus and pCN52RI-mCherry. Each fluorescent protein was induced by the β-lactam antibiotic CBAP. The ratios of fluorescence in the presence of CBAP to that in the absence of it were 3, 10 and 5 for GFP, Venus, and mCherry, respectively. Data were derived from four independent assays.
Live-Cell Fluorescent Assay in Discovery and Mechanism of Action. We conceived of fluorescent constructs in the bla operon, for the purpose of screening (FIG. 2a). We removed the gene for the β-lactamase (blaZ) and put in its place individually the genes for the Green Fluorescent Protein (GFP), Venus (a yellow-fluorescent protein) or mCherry (a red-fluorescent protein) in the template plasmid pCN52. The three plasmids were named pCN52RI, pCN52RI-Venus and pCN52RI-mCherry, respectively. The genes for the fluorescent proteins were transcribed under the promoter of the blaZ gene and were regulated by the proteins BlaR and BlaI, as is the case for the wild-type bla operon.
We transformed separately S. aureus NRS144—a laboratory strain that accepts a foreign gene and harbors neither the bla nor the mec operons—with each of these plasmids. […] When induced, the fluorescent protein is produced and is detected (akin to expression of the resistance genes blaZ or mecA in typical MSSA and MRSA). […] The transformed strains were grown in tryptic soy broth medium for overnight culture and strain maintenance and incubated in cation-adjusted Mueller-Hinton broth medium for inhibitor screening in a 96-well microplate format. The culture without CBAP addition was the negative control. In order to select a desirable reporter construct, we compared the intensity of the fluorescence produced from each construct at the wavelengths given in FIG. 2a using the Cytation-5 multi-mode microplate reader. Among the three constructs, pCN52RI-Venus produced the best fluorescence intensity and pCN52RI-mCherry was the second best (FIG. 4).
Construction of the fluorescent-reporter systems. […]

2-(2-carboxyphenyl)-benzoyl-6-aminopenicillanic acid [CBAP]
minimal-inhibitory concentration (MIC) (NRS144 strain): 64 µg/mL
ratio of fluorescence in the presence of CBAP to that in the absence ([1]; GFP (pCN52RI)): 3
ratio of fluorescence in the presence of CBAP to that in the absence ([1]; Venus (pCN52RI-venus)): 10
ratio of fluorescence in the presence of CBAP to that in the absence ([1]; mCherry (pCN52RI-mCherry)): 5

From US20260284011A1, “COMPOUNDS FOR RESTORING SUSCEPTIBILITY TO BETA-LACTAM ANTIBIOTICS” (UNIVERSITY OF NOTRE DAME DU LAC, priority 2023, published 2026)
